In ChEMBL document CHEMBL5543125, “Discovery of 2,3-Dihydro[1,4]dioxino[2,3-g]benzofuran Derivatives as Protease Activated Receptor 4 (PAR4) Antagonists with Potent Antiplatelet Aggregation Activity and Low Bleeding Tendency” (J Med Chem, 2024):
Active and inactive are the calls of the source. The calls are words filed in the database; no cut-off is given here.

How the values were obtained:
Plasma [1] = test: Anticoagulation activity in ICR mouse platelet poor plasma assessed as elongation of aPTT upto 20 uM incubated for 3 mins; type: functional, cell-free
[2] = Cmax in ICR mouse at 12 mg/kg, po measured upto 24 hrs by LC-MS/MS analysis; type: ADME, organism-based; conditions: in vivo
[3] = target: Voltage-gated inwardly rectifying potassium channel KCNH2 (Homo sapiens, UniProt Q12809); test: Inhibition of hERG expressed in HEK293 cells by whole cell patch clamp assay; type: toxicity, cell-based
[4] = Terminal elimination half life in ICR mouse at 2 mg/kg, iv measured upto 24 hrs by LC-MS/MS analysis; type: ADME, organism-based; conditions: in vivo, read-out: beta t1/2 (converted)
[5] = Oral bioavailability in ICR mouse at 12 mg/kg measured upto 24 hrs by LC-MS/MS analysis; type: ADME, organism-based; conditions: in vivo
[6] = Tmax in ICR mouse at 12 mg/kg, po measured upto 24 hrs by LC-MS/MS analysis; type: ADME, organism-based; conditions: in vivo
Platelet [7] = test: Antagonist activity at P2Y1/P2Y12 in ICR mouse plasma assessed as inhibition of ADP induced platelet aggregation upto 1 uM preincubated for 5 mins followed by aggregation inducer addition and measured after 5 mins by light transmission aggregometry; type: cell-free; conditions: time 10.0 min
[8] = Terminal elimination half life in ICR mouse at 12 mg/kg, po measured upto 24 hrs by LC-MS/MS analysis; type: ADME, organism-based; conditions: in vivo, read-out: beta t1/2 (converted)
Plasma [9] = test: Ex vivo antiplatelet aggregation activity in po dosed ICR mouse […] assessed as inhibition of PAR4-activated peptide AYPGFK-NH2 induced platelet aggregation measured after 2 hrs by light transmission aggregometry; type: functional, organism-based; conditions: dose 1-12 mg/kg
[10] = target: T1, Thromboxane A2 receptor (Mus musculus) (UniProt P30987); test: Antagonist activity at thromboxane A2 receptor in ICR mouse plasma assessed as inhibition of U46619 induced platelet aggregation upto 1 uM preincubated for 5 mins followed by aggregation inducer addition and measured after 5 mins by light transmission aggregometry; type: functional, cell-free; conditions: time 10.0 min
T1 sequence (whole entry): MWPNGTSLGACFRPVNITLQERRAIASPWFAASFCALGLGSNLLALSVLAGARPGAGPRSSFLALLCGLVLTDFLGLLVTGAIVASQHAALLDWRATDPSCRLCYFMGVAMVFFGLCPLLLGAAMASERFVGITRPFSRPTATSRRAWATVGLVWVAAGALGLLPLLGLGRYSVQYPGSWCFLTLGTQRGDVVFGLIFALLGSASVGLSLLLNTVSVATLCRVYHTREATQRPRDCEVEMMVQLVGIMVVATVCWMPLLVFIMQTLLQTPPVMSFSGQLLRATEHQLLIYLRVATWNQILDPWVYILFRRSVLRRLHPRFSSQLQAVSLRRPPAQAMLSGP

Plasma [11] = test: Ex vivo antiplatelet aggregation activity in po dosed ICR mouse […] assessed as inhibition of ADP induced platelet aggregation measured after 2 hrs by light transmission aggregometry; type: functional, organism-based; conditions: dose 1-12 mg/kg
Platelet [12] = test: Inhibition of platelet aggregation in human platelet rich plasma at 20 uM preincubated for 5 mins followed by aggregation inducer addition and measured after 5 mins by light transmission aggregometry relative to control; type: functional; conditions: 10 min
[13] = Clearance in ICR mouse at 2 mg/kg, iv measured upto 24 hrs by LC-MS/MS analysis; type: ADME, organism-based; conditions: in vivo
[14] = Metabolic stability in human liver microsomes assessed as half life at 1 uM preincubated for 1 hr followed by NADPH addition and measured upto 60 mins by LC-MS/MS analysis; type: ADME, Microsome; conditions: time < 120 min
Platelet [15] = test: Antiplatelet aggregation activity in ICR mouse plasma assessed as inhibition of thrombin induced platelet aggregation upto 1 uM preincubated for 5 mins followed by aggregation inducer addition and measured after 5 mins by light transmission aggregometry; type: functional, cell-based; conditions: time 10.0 min
Platelet [16] = test: Inhibition of platelet aggregation in human platelet rich plasma preincubated for 5 mins followed by aggregation inducer addition and measured after 5 mins by light transmission aggregometry; type: functional, cell-based
[17] = target: T2, Platelet glycoprotein VI (Homo sapiens) (UniProt Q9HCN6); test: Antagonist activity at GPVI in human platelet rich plasma assessed as inhibition of collagen induced platelet aggregation at >=4 uM preincubated for 5 mins followed by aggregation inducer addition and measured after 5 mins by light transmission aggregometry; type: cell-free; conditions: filed as antagonist, time 10.0 min
T2 sequence (whole entry): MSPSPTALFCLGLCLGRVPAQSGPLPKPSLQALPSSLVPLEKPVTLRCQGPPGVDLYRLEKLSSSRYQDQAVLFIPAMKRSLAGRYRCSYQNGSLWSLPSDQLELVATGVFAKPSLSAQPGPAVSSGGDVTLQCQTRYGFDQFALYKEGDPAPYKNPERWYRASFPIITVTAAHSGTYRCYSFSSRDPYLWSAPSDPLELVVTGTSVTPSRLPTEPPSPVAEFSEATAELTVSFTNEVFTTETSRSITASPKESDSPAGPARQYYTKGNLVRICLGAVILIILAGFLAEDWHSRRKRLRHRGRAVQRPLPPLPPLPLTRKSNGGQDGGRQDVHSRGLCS

Plasma [18] = test: Ex vivo antiplatelet aggregation activity in ICR mouse […] assessed as inhibition of ADP induced platelet aggregation at 6 to 12 mg/kg, po measured after 2 hrs by light transmission aggregometry relative to control; type: functional; conditions: dose 6-12 mg/kg
[19] = AUC (0 to t) in ICR mouse at 2 mg/kg, iv measured upto 24 hrs by LC-MS/MS analysis; type: ADME, organism-based; conditions: in vivo
[20] = AUC (0 to t) in ICR mouse at 12 mg/kg, po measured upto 24 hrs by LC-MS/MS analysis; type: ADME, organism-based; conditions: in vivo
Plasma [21] = test: Anticoagulation activity in ICR mouse platelet poor plasma assessed as elongation of prothrombin time upto 20 uM incubated for 3 mins; type: functional, cell-free
[22] = target: T3, Proteinase-activated receptor 4 (Mus musculus) (UniProt O88634); test: Antagonist activity at PAR4 in ICR mouse plasma assessed as inhibition of PAR4-activated peptide AYPGPK-NH2 induced platelet aggregation at 200 to 1000 nM preincubated for 5 mins followed by aggregation inducer addition and measured after 5 mins by light transmission aggregometry; type: cell-free; conditions: filed as antagonist, dose 200-1000 nM, time 10.0 min
T3 sequence (whole entry): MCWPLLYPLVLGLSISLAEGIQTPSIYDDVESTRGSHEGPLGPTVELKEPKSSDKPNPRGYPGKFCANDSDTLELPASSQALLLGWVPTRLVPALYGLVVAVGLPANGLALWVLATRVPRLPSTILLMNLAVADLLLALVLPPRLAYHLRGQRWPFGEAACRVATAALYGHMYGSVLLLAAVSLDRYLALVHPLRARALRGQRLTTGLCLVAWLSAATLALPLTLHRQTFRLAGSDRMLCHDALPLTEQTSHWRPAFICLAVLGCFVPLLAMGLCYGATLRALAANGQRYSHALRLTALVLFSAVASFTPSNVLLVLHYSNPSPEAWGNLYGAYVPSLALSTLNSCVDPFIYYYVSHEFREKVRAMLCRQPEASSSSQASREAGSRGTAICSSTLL

[23] = Toxicity in C57BL/6J mouse assessed as prolongation of bleeding time at 3 to 12 mg/kg, po administered via oral gavage and measured after 2 hrs; type: organism-based; conditions: in vivo, dose 3-12 mg/kg
Plasma [24] = test: Ex vivo antiplatelet aggregation activity in ICR mouse […] assessed as inhibition of PAR4-activated peptide AYPGFK-NH2 induced platelet aggregation at 6 to 12 mg/kg, po measured after 2 hrs by light transmission aggregometry relative to control; type: functional; conditions: dose 6-12 mg/kg
[25] = target: T4, Platelet glycoprotein VI (Mus musculus) (UniProt P0C191); test: Antagonist activity at GPVI in ICR mouse plasma assessed as inhibition of collagen induced platelet aggregation upto 1 uM preincubated for 5 mins followed by aggregation inducer addition and measured after 5 mins by light transmission aggregometry; type: cell-free; conditions: time 10.0 min
T4 sequence (whole entry): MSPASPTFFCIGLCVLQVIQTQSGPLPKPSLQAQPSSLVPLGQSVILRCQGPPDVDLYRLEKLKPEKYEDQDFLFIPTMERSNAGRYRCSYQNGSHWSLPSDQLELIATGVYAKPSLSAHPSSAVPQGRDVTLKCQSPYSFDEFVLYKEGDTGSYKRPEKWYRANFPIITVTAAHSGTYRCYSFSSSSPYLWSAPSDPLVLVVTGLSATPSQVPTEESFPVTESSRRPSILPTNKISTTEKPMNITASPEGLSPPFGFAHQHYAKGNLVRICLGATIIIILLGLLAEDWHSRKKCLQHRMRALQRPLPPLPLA

Platelet [26] = test: Antagonist activity at P2Y1/P2Y12 in ICR mouse plasma assessed as inhibition of ADP induced platelet aggregation upto 8 uM preincubated for 5 mins followed by aggregation inducer addition and measured after 5 mins by light transmission aggregometry; type: cell-free; conditions: time 10.0 min
[27] = target: T1, Thromboxane A2 receptor (Mus musculus); test: Antagonist activity at thromboxane A2 receptor in ICR mouse plasma assessed as inhibition of U46619 induced platelet aggregation upto 8 uM preincubated for 5 mins followed by aggregation inducer addition and measured after 5 mins by light transmission aggregometry; type: functional, cell-free; conditions: time 10.0 min
Platelet [28] = test: Antiplatelet aggregation activity in ICR mouse plasma assessed as inhibition of thrombin induced platelet aggregation upto 8 uM preincubated for 5 mins followed by aggregation inducer addition and measured after 5 mins by light transmission aggregometry; type: functional, cell-based; conditions: time 10.0 min
[29] = target: T3, Proteinase-activated receptor 4 (Mus musculus); test: Antagonist activity at PAR4 in ICR mouse plasma assessed as inhibition of PAR4-activated peptide AYPGPK-NH2 induced platelet aggregation at 100 to 1000 nM preincubated for 5 mins followed by aggregation inducer addition and measured after 5 mins by light transmission aggregometry; type: cell-free; conditions: filed as antagonist, dose 100-1000 nM, time 10.0 min
[30] = target: T4, Platelet glycoprotein VI (Mus musculus); test: Antagonist activity at GPVI in ICR mouse plasma assessed as inhibition of collagen induced platelet aggregation upto 8 uM preincubated for 5 mins followed by aggregation inducer addition and measured after 5 mins by light transmission aggregometry; type: cell-free; conditions: time 10.0 min
Plasma [31] = test: Ex vivo antiplatelet aggregation activity in ICR mouse […] assessed as inhibition of PAR4-activated peptide AYPGFK-NH2 induced platelet aggregation at 6 mg/kg, po measured after 2 hrs by light transmission aggregometry; type: functional, organism-based
Plasma [32] = test: Ex vivo antiplatelet aggregation activity in ICR mouse […] assessed as inhibition of ADP induced platelet aggregation at 6 mg/kg, po measured after 2 hrs by light transmission aggregometry; type: functional, organism-based

Voltage-gated inwardly rectifying potassium channel KCNH2, sequence (Q12809 whole entry): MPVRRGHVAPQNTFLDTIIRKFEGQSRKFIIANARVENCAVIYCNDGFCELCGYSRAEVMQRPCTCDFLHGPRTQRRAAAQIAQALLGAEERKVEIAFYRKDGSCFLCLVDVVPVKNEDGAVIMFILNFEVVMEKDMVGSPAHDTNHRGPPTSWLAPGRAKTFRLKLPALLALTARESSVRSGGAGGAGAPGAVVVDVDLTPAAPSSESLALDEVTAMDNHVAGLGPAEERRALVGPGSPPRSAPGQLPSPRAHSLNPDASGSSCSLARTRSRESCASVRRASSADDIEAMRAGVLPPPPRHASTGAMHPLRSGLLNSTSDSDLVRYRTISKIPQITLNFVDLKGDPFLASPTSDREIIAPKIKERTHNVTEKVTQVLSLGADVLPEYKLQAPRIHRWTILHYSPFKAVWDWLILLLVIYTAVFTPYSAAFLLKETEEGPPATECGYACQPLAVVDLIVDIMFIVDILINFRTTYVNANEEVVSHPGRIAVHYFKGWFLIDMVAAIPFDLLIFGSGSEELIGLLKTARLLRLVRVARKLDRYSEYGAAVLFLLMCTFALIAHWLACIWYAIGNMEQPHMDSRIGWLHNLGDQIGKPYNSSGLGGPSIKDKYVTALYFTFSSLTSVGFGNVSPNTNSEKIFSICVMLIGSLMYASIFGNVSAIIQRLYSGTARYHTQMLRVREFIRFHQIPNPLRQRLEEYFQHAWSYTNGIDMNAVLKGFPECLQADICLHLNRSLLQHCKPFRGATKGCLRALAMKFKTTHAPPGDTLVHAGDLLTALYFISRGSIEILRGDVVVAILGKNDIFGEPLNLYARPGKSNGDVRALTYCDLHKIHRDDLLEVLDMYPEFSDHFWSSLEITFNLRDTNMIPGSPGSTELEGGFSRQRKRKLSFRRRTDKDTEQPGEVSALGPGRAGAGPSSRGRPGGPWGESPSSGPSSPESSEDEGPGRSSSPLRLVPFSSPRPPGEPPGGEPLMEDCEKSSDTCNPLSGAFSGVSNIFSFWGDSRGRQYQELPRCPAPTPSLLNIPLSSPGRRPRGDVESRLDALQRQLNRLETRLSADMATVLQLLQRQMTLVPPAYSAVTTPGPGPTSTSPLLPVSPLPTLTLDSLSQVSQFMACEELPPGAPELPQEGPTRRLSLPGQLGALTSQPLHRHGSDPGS

| Cmax [2] [ng/mL] | half-life [4] [h] | bioavailability [5] [%] | Tmax [6] [h] | Activity (Platelet [7]) | half-life [8] [h] | Activity [10] | clearance [13] [mL/min/kg] | half-life at 1 µM [14] [h] | IC50 (Platelet [16]) [nM] | AUC(0-t) at 24 h [19] [ng·h/mL] | AUC(0-t) at 24 h [20] [ng·h/mL] | SMILES | Activity (Plasma [1]) | IC50 [3] [nM] | Activity (Plasma [9]) | Activity (Plasma [11]) | inhibition at 20 µM (Platelet [12]) [%] | Activity (Platelet [15]) | inhibition (INH) (Plasma [18]) [%] | Activity (Plasma [21]) | also measured |
| --- | --- | --- | --- | --- | --- | --- | --- | --- | --- | --- | --- | --- | --- | --- | --- | --- | --- | --- | --- | --- | --- |
| 325 | 11.3 | 45.1 | 1.67 | inactive | 7.32 | inactive | 23.8 | 1.63 | 26.1 | 1250 | 3460 | COc1nn2cc(-c3cc4ccc5c(c4o3)OC(COc3ccc(F)cc3)CO5)nc2s1 (stereo not given) | inactive | 21600 | Dose-Dependent Effect | Dose-Dependent Effect | 85.9 | inactive | >90 | inactive | Activity [17]: Active; Activity [22]: Active; Activity [23]: Non-Toxic; inhibition (INH) (Plasma [24]): >90%; Activity [25]: inactive |
| 204 | 38.3 | 9.61 | 2 | inactive | 29.5 | inactive | 3 | 0.708 | 14.2 | 5390 | 3040 | COc1nn2cc(-c3cc4ccc5c(c4o3)OCC(COc3ccc(F)cc3)O5)nc2s1 (stereo not given) | inactive | > 30000 | Dose-Dependent Effect | Dose-Dependent Effect | 87.2 | inactive | >90 | inactive | Activity (Platelet [26]): inactive; Activity [27]: inactive; Activity (Platelet [28]): inactive; Activity [29]: Active; Activity [30]: inactive; Activity [23]: Non-Toxic; inhibition (INH) (Plasma [24]): >90%; Activity [25]: inactive |
| – | – | – | – | – | – | – | – | – | – | – | – | COc1nn2cc(-c3cc4ccccc4o3)nc2s1 | – | – | – | – | – | – | – | – | Activity (Plasma [31]): inactive; Activity (Plasma [32]): inactive |
